IC50 data for 7 compounds are collected here from PMC3364000 (Vaccine, 2009).

The term IC50 denotes the concentration at which inhibition is half-maximal.

Peptide text beside a SMILES is read from it.

Some targets named below: HLA-DRB1*0301 (Homo sapiens, UniProt P01903+P01911, A100K/A102G/A103R/A169T/F55Y/I96L/K41T/L162R/M171V/P40S/Q125H/Q178H/Q39Y/R42S/S66N/T106N/T262R/W38E/Y61H); HLA-DRB5*0101 (Homo sapiens, UniProt P01903+Q30154); HLA-DRB1*0101 (Homo sapiens, UniProt P01903+P01911, A100R/D57E/F55L/F60I/F76Y/I96L/L162R/M171V/P40L/Q125E/R42F/V115G/Y59C); HLA-DRB1*0401 (Homo sapiens, UniProt P01903+P01911, A100K/A169T/F76Y/I96L/K127E/L162R/M171V/N62H/P40V/Q125Y/R42H/S133A/S149N/S66Y/V115G/V209L/W38E); HLA-DRB1*0404 (Homo sapiens, UniProt P01903+P01911, A100R/A169T/F76Y/I96L/K127E/L162R/M171V/N62H/P40V/Q125Y/R42H/S133A/S149N/S66Y/V209L/W38E); HLA-DRB1*0405 (Homo sapiens, UniProt P01903+P01911, A100R/A169T/D86S/F76Y/I96L/K127E/L162R/M171V/N62H/P40V/Q125Y/R42H/S133A/S149N/S66Y/V115G/V209L/W38E); HLA-DRB1*0701 (Homo sapiens, UniProt P01903+P01911, A100R/A102G/A103Q/D57E/D86V/E43K/F76Y/K127E/L162R/M171V/P40G/Q125H/Q99D/R33Q/R42Y/R54Q/S133A/S66F/T210M/V115G/Y107V/Y59L/Y89S); HLA-DRB1*0802 (Homo sapiens, UniProt P01903+P01911, A100R/A103L/A169T/F76Y/H45Y/I96F/K41T/L162R/M171V/P40S/Q125H/Q178H/Q39Y/Q99D/R218S/R42G/S66Y/V115G/W38E); HLA-DRB1*0901 (Homo sapiens, UniProt P01903+P01911, A100R/A103E/D57H/D86V/F55Y/F60I/F76Y/I96F/K127E/L162R/M171V/P40D/Q125H/Q99R/R33Q/R42F/S133A/S66N/T210M/V115G/W38K/Y107V/Y59G/Y89S); HLA-DRB1*1101 (Homo sapiens, UniProt P01903+P01911, A100R/A169T/A87E/I96F/K41T/L162R/M171V/P40S/Q125H/Q178H/Q39Y/Q99D/R42S/S66Y/T262R/V115G/W38E); HLA-DRB1*1302 (Homo sapiens, UniProt P01903+P01911, A100E/A169T/K41T/L162R/M171V/P40S/Q125H/Q178H/Q39Y/Q99D/R42S/S66N/T262R/V115G/W38E/Y61H); HLA-DRB1*1501 (Homo sapiens, UniProt P01903+P01911); HLA-DRB4*0101 (Homo sapiens, UniProt P01903+P13762, G164S).

What all share (assay): biochemical
Common to all, as to format: binding

Sequence of HLA-DRB1*1302 (P01903 26-254 limits assumed, other chains not shown): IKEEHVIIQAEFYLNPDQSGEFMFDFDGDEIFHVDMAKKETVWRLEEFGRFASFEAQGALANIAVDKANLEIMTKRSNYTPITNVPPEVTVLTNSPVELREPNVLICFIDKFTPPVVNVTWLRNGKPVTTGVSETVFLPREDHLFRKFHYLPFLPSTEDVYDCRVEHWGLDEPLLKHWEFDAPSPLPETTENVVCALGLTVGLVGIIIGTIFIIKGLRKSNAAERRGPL
Sequence of HLA-DRB1*0301 (P01903 26-254, other chains not shown): as the sequence (P01903 26-254 limits assumed, other chains not shown) above
Sequence of HLA-DRB1*1101 (P01903 26-254 limits assumed, other chains not shown): as above

In the case of `CC[C@H](C)[C@H](NC(=O)CNC(=O)[C@@H](NC(=O)[C@@H](NC(=O)[C@H](CO)NC(=O)[C@H](C)NC(=O)[C@H](C)NC(=O)[C@@H](NC(=O)[C@@H](NC(=O)[C@H](CC(C)C)NC(=O)[C@@H]1CCCN1C(=O)[C@@H](N)CC(=O)O)C(C)C)C(C)C)[C@@H](C)CC)[C@@H](C)CC)C(=O)N[C@@H](CC(C)C)C(=O)N[C@@H](Cc1c[nH]cn1)C(=O)N[C@@H](CC(C)C)C(=O)O` [M2.24], the half-inhibitory concentration (IC50) against HLA-DRB1*0301 and on HLA-DRB5*0101 was above 10000 nM throughout.

As to `CC[C@H](C)[C@H](N)C(=O)NCC(=O)N[C@@H](CCCNC(=N)N)C(=O)N[C@@H](Cc1ccccc1)C(=O)N[C@@H](Cc1ccc(O)cc1)C(=O)N[C@H](C(=O)N[C@@H](CCC(N)=O)C(=O)N[C@@H](CCSC)C(=O)N[C@@H](CS)C(=O)N[C@H](C(=O)N[C@@H](CCC(=O)O)C(=O)N[C@@H](CC(C)C)C(=O)N[C@@H](CCCCN)C(=O)N[C@@H](CC(C)C)C(=O)N[C@@H](CO)C(=O)N[C@@H](CC(=O)O)C(=O)N[C@@H](Cc1ccc(O)cc1)C(=O)N[C@@H](CCC(=O)O)C(=O)NCC(=O)O)[C@@H](C)O)[C@@H](C)CC` [NP.36] (H-IGRFYIQMCTELKLSDYEG-OH), the IC50 was found to be 31 nM at HLA-DRB1*0101; 291 nM at HLA-DRB1*0301; 53 nM against HLA-DRB1*0401; 116 nM against HLA-DRB1*0404; 29 nM against HLA-DRB1*0405; 443 nM on HLA-DRB1*0701. For the same compound, the half-inhibitory concentration (IC50) against HLA-DRB1*0802 turned out to be 486 nM; at HLA-DRB1*0901 it was 193 nM; against HLA-DRB1*1101, 236 nM; on HLA-DRB1*1302, 2700 nM; at HLA-DRB1*1501, 23 nM; against HLA-DRB4*0101, 210 nM. Besides, on HLA-DRB5*0101, it took 28 nM to reach half-maximal inhibition (IC50).

Take `CC[C@H](C)[C@H](NC(=O)[C@H](CO)NC(=O)[C@H](CC(N)=O)NC(=O)[C@@H](N)CCC(N)=O)C(=O)N[C@H](C(=O)N[C@H](C(=O)N[C@@H](CCC(=O)O)C(=O)N[C@@H](CCCNC(=N)N)C(=O)N[C@@H](CCSC)C(=O)N[C@H](C(=O)N[C@@H](CC(C)C)C(=O)N[C@@H](CO)C(=O)N[C@@H](C)C(=O)N[C@@H](Cc1ccccc1)C(=O)N[C@@H](CC(=O)O)C(=O)O)C(C)C)[C@@H](C)CC)[C@@H](C)O` [NP.58]: the results for the IC50 against HLA-DRB1*0404 and against HLA-DRB5*0101 were 188 nM and above 10000 nM, respectively.

Take `CSCC[C@H](NC(=O)[C@H](Cc1c[nH]c2ccccc12)NC(=O)[C@@H](NC(=O)[C@H](CC(C)C)NC(=O)[C@H](CCC(N)=O)NC(=O)[C@H](CO)NC(=O)[C@@H](N)CCCCN)C(C)C)C(=O)N[C@@H](C)C(=O)N[C@@H](CS)C(=O)N[C@@H](Cc1c[nH]cn1)C(=O)N[C@@H](CO)C(=O)N[C@@H](C)C(=O)N[C@@H](C)C(=O)N[C@@H](Cc1ccccc1)C(=O)N[C@@H](CCC(=O)O)C(=O)O` [NP.325]: the values for the half-maximal inhibitory concentration (IC50) at HLA-DRB1*0101, at HLA-DRB1*0404 and at HLA-DRB1*1302 were 35 nM, 34 nM and above 10000 nM, respectively.

Take `CC[C@H](C)[C@H](NC(=O)[C@H](C)NC(=O)CNC(=O)[C@@H](N)CCC(=O)O)C(=O)N[C@H](C(=O)NCC(=O)N[C@@H](CCC(=O)O)C(=O)N[C@H](C(=O)N[C@@H](CO)C(=O)N1CCC[C@H]1C(=O)N[C@@H](CC(C)C)C(=O)N1CCC[C@H]1C(=O)N[C@@H](CO)C(=O)N[C@@H](CC(C)C)C(=O)N1CCC[C@H]1C(=O)NCC(=O)N[C@@H](Cc1c[nH]cn1)C(=O)N[C@H](C(=O)N[C@@H](CC(=O)O)C(=O)O)[C@@H](C)O)[C@@H](C)CC)C(C)C` [NS1.153]: the half-maximal inhibitory concentration (IC50) against HLA-DRB1*0101 is 64 nM; against HLA-DRB1*0301, 8330 nM; at HLA-DRB1*0401 it was 14 nM; on HLA-DRB1*0404 it was 6 nM; on HLA-DRB1*0405 it was 98 nM; against HLA-DRB1*0701, above 10000 nM. Also, the half-inhibitory concentration (IC50) against HLA-DRB1*0802 came to 227 nM; against HLA-DRB1*0901, 6360 nM; on HLA-DRB1*1101, 88 nM; against HLA-DRB1*1302, 1770 nM; on HLA-DRB1*1501 it was 7 nM; against HLA-DRB4*0101 it was 131 nM. Further, at HLA-DRB5*0101, half-maximal inhibition (IC50) required 1140 nM.

Regarding `CC[C@H](C)[C@H](NC(=O)[C@H](CCC(N)=O)NC(=O)[C@H](CCC(=O)O)NC(=O)[C@@H](N)Cc1ccccc1)C(=O)N[C@H](C(=O)N[C@@H](Cc1ccccc1)C(=O)N[C@@H](CCSC)C(=O)N[C@@H](CCC(N)=O)C(=O)N[C@@H](C)C(=O)N[C@@H](CC(C)C)C(=O)N[C@@H](CCC(N)=O)C(=O)N[C@@H](CC(C)C)C(=O)N[C@@H](CC(C)C)C(=O)N[C@@H](CC(C)C)C(=O)N[C@@H](CCC(=O)O)C(=O)O)[C@@H](C)O` [NS2.94], on HLA-DRB1*1501, the IC50 worked out at 10 nM.

As to `CC[C@H](C)[C@H](NC(=O)[C@H](CCCCN)NC(=O)[C@H](CC(N)=O)NC(=O)[C@H](C)NC(=O)[C@H](CCCCN)NC(=O)[C@H](CCC(=O)O)NC(=O)[C@H](CC(C)C)NC(=O)[C@H](Cc1ccc(O)cc1)NC(=O)[C@H](Cc1ccc(O)cc1)NC(=O)[C@@H](NC(=O)[C@H](Cc1c[nH]cn1)NC(=O)[C@@H](NC(=O)[C@H](CCC(=O)O)NC(=O)[C@H](CCCNC(=N)N)NC(=O)[C@@H](N)CCCNC(=N)N)C(C)C)[C@@H](C)CC)C(=O)O` [PA.124], the IC50 is above 10000 nM at HLA-DRB1*0301 and 4 nM against HLA-DRB1*1501.
